Reference: ChEMBL document CHEMBL3244356, “Synthesis of some pentazocine metabolites and related compounds” (1977)
Activity calls are given as the source filed them. The rule behind the calls is not given here.

Experiments:
Rattus norvegicus [1] = species on record: Rattus norvegicus; experiment: Inhibition of meperidine-induced antinociceptive activity in rat by D'Amour-Smith thermal stimulus test; type: functional
Rattus norvegicus [2] = species on record: Rattus norvegicus; experiment: Antinociceptive activity in rat assessed as protection from p-phenylquinone-induced writhing; type: functional
Rattus norvegicus [3] = experiment: Antinociceptive activity in rat at 120 mg/kg, sc by D'Amour-Smith thermal stimulus test; type: functional, organism-based; design: dose 120 mg/kg
Rattus norvegicus [4] = experiment: Inhibition of meperidine-induced antinociceptive activity in rat at 80 mg/kg, sc by D'Amour-Smith thermal stimulus test; type: functional, organism-based; design: dose 80 mg/kg
Rattus norvegicus [5] = experiment: Antinociceptive activity in rat assessed as protection from p-phenylquinone-induced writhing at 100 mg/kg, sc; type: functional, organism-based; design: dose 100 mg/kg
Rattus norvegicus [6] = experiment: Inhibition of meperidine-induced antinociceptive activity in rat at 40 mg/kg, sc by D'Amour-Smith thermal stimulus test; type: functional, organism-based; design: dose 40 mg/kg
Rattus norvegicus [7] = experiment: Antinociceptive activity in rat at 60 mg/kg, sc by D'Amour-Smith thermal stimulus test; type: functional, organism-based; design: dose 60 mg/kg

SMILES | AD50 (Rattus norvegicus [1]) | ED50 (Rattus norvegicus [2]) [mg/kg] | Activity (Rattus norvegicus [3]) | other results
C/C(=C\CN1CC[C@@]2(C)c3cc(O)ccc3C[C@@H]1[C@@H]2C)CO (racemic) | >320 mg/kg | 37 |  | 
CCOC(=O)CN1CC[C@@]2(C)c3cc(O)ccc3C[C@@H]1[C@@H]2C (racemic) | 66 mg/kg |  | inactive | 
CC(=O)CCN1CC[C@@]2(C)c3cc(O)ccc3C[C@@H]1[C@@H]2C (racemic) | 1.7 mg/kg | 22 | inactive | 
C[C@H]1[C@H]2Cc3ccc(O)cc3[C@]1(C)CCN2CCC(C)(C)O (racemic) |  | 37 | inactive | inhibition (Rattus norvegicus [4]): inactive
CC(C)C(=O)CN1CC[C@@]2(C)c3cc(O)ccc3C[C@@H]1[C@@H]2C (racemic) | 2.8 mg/kg |  |  | 
C/C(=C\CN1CC[C@@]2(C)c3cc(O)ccc3C[C@@H]1[C@@H]2C)C(=O)O (racemic) | inactive |  |  | Activity (Rattus norvegicus [5]): inactive
C[C@H]1[C@H]2Cc3ccc(O)cc3[C@]1(C)CCN2CC(=O)O (racemic) |  |  |  | inhibition (Rattus norvegicus [6]): inactive; Activity (Rattus norvegicus [7]): inactive
CC(C)=CCN1CC[C@]2(C)c3cc(O)ccc3C[C@H]1[C@H]2C [(+)-PENTAZOCINE] | 3.9 mg/kg | 2.3 | inactive | 
